Test results published in publication PMC3831292 (Frontiers in Pharmacology, 2013).

Assays:
Experiment in all cases: two-electrode voltage clamp, Xenopus oocytes
Assay type in all cases: cell-based
hTASK-3 (K2P9.1, KCNK9) = target: T1, hTASK-3 (K2P9.1, KCNK9) (Homo sapiens, UniProt Q9NPC2); conditions: read-out: TASK-3
T1 construct: full-length cDNA in pBR4-TOPO (mutants in pCDNA3); cRNA injected into Xenopus laevis oocytes
Description: two-electrode voltage clamp, Xenopus oocytes on hTASK-3 (K2P9.1, KCNK9)

hTRESK (K2P18.1, KCNK18) = target: T2, hTRESK (K2P18.1, KCNK18) (Homo sapiens, UniProt Q7Z418); conditions: read-out: TRESK
T2 construct: full-length cDNA in plasmid pEXO; cRNA injected into Xenopus laevis oocytes
T2 sequence (Q7Z418 1-384): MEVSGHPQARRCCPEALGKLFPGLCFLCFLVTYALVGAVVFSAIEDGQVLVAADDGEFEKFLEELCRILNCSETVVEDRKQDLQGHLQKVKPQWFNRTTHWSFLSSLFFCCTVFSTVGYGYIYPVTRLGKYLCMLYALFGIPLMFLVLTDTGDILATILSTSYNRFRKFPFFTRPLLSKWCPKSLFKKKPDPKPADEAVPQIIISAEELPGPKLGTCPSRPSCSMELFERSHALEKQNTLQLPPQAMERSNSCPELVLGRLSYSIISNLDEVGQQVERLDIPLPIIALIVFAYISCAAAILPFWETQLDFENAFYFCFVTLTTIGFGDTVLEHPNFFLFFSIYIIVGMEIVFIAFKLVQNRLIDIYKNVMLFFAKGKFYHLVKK
Description: two-electrode voltage clamp, Xenopus oocytes on hTRESK (K2P18.1, KCNK18)

hTASK-1 (K2P3.1, KCNK3) = target: T3, hTASK-1 (K2P3.1, KCNK3) (Homo sapiens, UniProt O14649); conditions: read-out: TASK-1
T3 construct: full-length cDNA in pIRES-CD8 vector; cRNA injected into Xenopus laevis oocytes
T3 sequence (O14649 whole entry): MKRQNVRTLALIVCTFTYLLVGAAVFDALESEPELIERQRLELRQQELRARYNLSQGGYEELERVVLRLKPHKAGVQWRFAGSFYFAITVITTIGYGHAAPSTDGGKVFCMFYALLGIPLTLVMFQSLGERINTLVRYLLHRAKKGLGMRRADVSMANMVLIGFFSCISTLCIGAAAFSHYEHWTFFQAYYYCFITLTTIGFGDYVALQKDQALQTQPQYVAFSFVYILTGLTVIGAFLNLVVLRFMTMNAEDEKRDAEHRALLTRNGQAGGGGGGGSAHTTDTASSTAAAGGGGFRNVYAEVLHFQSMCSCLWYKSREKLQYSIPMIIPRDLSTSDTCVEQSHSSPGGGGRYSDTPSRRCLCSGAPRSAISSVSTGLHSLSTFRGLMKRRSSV
Description: two-electrode voltage clamp, Xenopus oocytes on hTASK-1 (K2P3.1, KCNK3)

T1 sequence (Q9NPC2 whole entry): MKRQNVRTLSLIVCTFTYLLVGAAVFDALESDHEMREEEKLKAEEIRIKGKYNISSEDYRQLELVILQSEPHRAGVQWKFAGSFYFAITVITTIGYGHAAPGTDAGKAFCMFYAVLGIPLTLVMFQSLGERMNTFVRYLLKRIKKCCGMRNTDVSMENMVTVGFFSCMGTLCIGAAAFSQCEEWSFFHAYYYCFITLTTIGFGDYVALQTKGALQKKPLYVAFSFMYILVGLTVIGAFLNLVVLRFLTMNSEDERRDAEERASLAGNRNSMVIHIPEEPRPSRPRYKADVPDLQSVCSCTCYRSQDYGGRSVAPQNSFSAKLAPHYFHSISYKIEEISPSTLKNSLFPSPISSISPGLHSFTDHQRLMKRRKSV

Compound	IC50 (hTASK-3 (K2P9.1, KCNK9)) [µM]	IC50 (hTRESK (K2P18.1, KCNK18)) [µM]	IC50 (hTASK-1 (K2P3.1, KCNK3)) [µM]
CCCCC[C@H](O)CC(=O)CCc1ccc(O)c(OC)c1 [6-gingerol]	385 ± 55.6	155 ± 70.9	227 ± 46.5
COc1cc(CNC(=O)CCCC/C=C/C(C)C)ccc1O [capsaicin]	41.8 ± 3.6	70.2 ± 5.3	61.1 ± 4
O=C(/C=C/C=C/c1ccc2c(c1)OCO2)N1CCCCC1 [piperine]	133 ± 5.9	231 ± 105	
CC1(C)CCC[C@]2(C)[C@@H](C=O)C(C=O)=CC[C@@H]12 [polygodial]	328 ± 24.7		485 ± 18.2
